Experimental data published in patent US20200179392A1, “Idelalisib for Treating Proliferative Vitreoretinopathy and Abnormal Intraocular Neovascularization” (priority 2016, published 2020).

Assays:
[1] = tested on: RPEM cells; experiment: Cell migration (scratch) assay, RPEM cells with vitreous; format: cell-based, human; conditions: idelalisib 5 μM, 16 hours
Procedure: 3C. After the RPEM cells in a 12-well plate reached 90% confluence, the cultured wells were scratched with a 200 μl pipet tip and treated with RV supplemented with idelalisib (5 μM) or its vehicle. 16 hours later the pictures of the cells were taken and analyzed. A representative raw data of three experiments below the bar graphs is shown. Scale bar: 500 μm. RPEM cells in a 12-well plate were grown to near confluence, and then the wells with 90% confluent cells were scratched with 200 μl pipet tip. The cells were washed with PBS and treated with DMEM/F12 or RV (1:2 dilution in DMEM/F12) with or without idelalisib (5 μM). The scratched area was photographed to capture the initial width and photographed again 16 hours later. Analysis was conducted using Adobe Photoshop CS4 software. At least three independent experiments were performed.

[2] = tested on: phosphorylation of Akt at serine 473; experiment: Western blot of Akt phosphorylation (S473) in RPEM cells stimulated with vitreous or PDGF; format: cell-based, human
Procedure: 1B. After growth factor-deprivation, the RPEM cells were pretreated with idelalisib at indicated concentrations, or its vehicle for 30 minutes, and then treated with normal rabbit vitreous diluted (1:2) in DMEM (RV), V: vehicle (0.1% dimethyl sulfoxide) or PDGF-B (10 ng/ml). After the treatment for 30 minutes at 37° C., their lysates were subjected to a western blot analysis using the indicated antibodies. This is representative of three independent experiments. Cells grown to 90% confluence in wells of 24-well plates were serum starved for 24 hours, and then treated with appropriated agents. After two washes with ice-cold phosphate buffered saline (PBS), the cells were lysed in 1× sample buffer diluted with protein extraction buffer (10 mM Tris-HCl, pH 7.4; 5 mM […] (EDTA), 50 mM NaCl, 50 mM NaF, 1% Triton X-100, 20 μg/ml aprotinin, 2 mM Na3VO4, 1 mM phenylmethylsulfonyl fluoride] from 5× sample buffer [25 mM EDTA, 10% sodium dodecyl sulfate (SDS), 500 mM dithiothreitol (DTT), 50% sucrose, 500 mM Tris.HCl (pH=6.8), 0.5% bromophenol blue). The samples were boiled for 5 minutes and then centrifuged for 5 minutes at 13,000×g, 4° C. […] Signal intensity was determined by densitometry using NIH imageJ software^24, 44, 50.

[3] = tested on: angiogenesis (neovascularization) in retina; experiment: Mouse model of oxygen-induced retinopathy (OIR); format: in vivo; conditions: P12 mice, intravitreal 1 μl of 50 μM, retinas IB4 stained on P17
Procedure: FIGS. 11A-B. Idelalisib inhibits angiogenesis in a mouse model of oxygen-induced retinopathy (OIR). Litters of P12 mice that had been exposed to 75% oxygen for five days were injected intravitreally with 1 μl ilidelalisib (50 μM) or its vehicle (DMSO). A, On P17, whole-mount-retinas were stained with IB4. B, Analysis of neovascularization (NV) areas from the IB4 stained retinas (n=6). The bar graph data are mean±SD of three retinas. “*” indicates significant difference using an unpaired t test. p<0.05.
C57BL/6J litters on postnatal day (P) 7 were exposed to 75% oxygen until P12 in the oxygen chamber (Biospherix). Oxygen concentration was monitored daily using an oxygen sensor (Advanced Instruments, GPR-20F)^58, 59. On P12, the pups were anesthetized by intraperitoneal injection of 50 mg/kg ketamine hydrochloride and 10 mg/kg xylazine. During intravitreal injections, eyelids of P12 pups were separated by incision. Pupils were dilated using a drop of 1% tropicamide and the eyes were treated with topical proparacaine anesthesia. Intravitreous injections were performed under a microsurgical microscope using glass pipettes with a diameter of approximately 150 μm at the tip after the eye were punctured at the upper nasal limbus using a BD insulin syringe with the BD ultra-fine needle. One μl of idelalisib or DMSO was injected. […]

[4] = tested on: HRECs; experiment: VEGF-induced cell proliferation assay in HRECs; format: cell-based, human; conditions: VEGF 20 ng/ml, idelalisib 5 μM, 48 hours
Procedure: In a cell proliferation assay, HRECs cells were seeded into 24-well plates at a density of 30,000 cells/well in an endothelial growth medium kit. After attaching the plates, the cells were starved for growth factors for 7 hours, and then treated with VEGF (20 ng/ml) or VEGF plus idelalisib (5 μM). After 48 hours, the cells were trypsin detached and then counted in a hemocytometer under a light microscope as shown in FIG. 10A from three independent experiments^50, 61.

[5] = tested on: RPEM cells; experiment: Cell proliferation assay, RPEM cells with vitreous; format: cell-based, human; conditions: idelalisib 5 μM, 48 hours
Procedure: 3A. RPEM cells were seeded into a 24-well plate at a density of 3×10^4 cells/well. After 8 hours the cells had attached, the medium was changed to either 0.5 ml DMEM (−) or RV supplemented with idelalisib (5 μM) or its vehicle. After treated for 48 hours, the cells were counted with a hemocytometer under a light microscope. RPEM cells were seeded into wells of a 24-well plate at a density of 3×10^4 cells/well in DMEM/F12 with 10% FBS. Following attachment, the cells were treated with DMEM/F12 or RV (1:2 dilution in DMEM/F12) with or without idelalisib (5 μM). On day 3, the cells were trypsin detached from the plates and counted in a hemocytometer. Each experimental condition was assayed in duplicate, and at least three independent experiments were performed^24, 44.

## CC[C@H](Nc1ncnc2[nH]cnc12)c1nc2cccc(F)c2c(=O)n1-c1ccccc1 [idelalisib]
[1]
  effect on vitreous-induced migration of RPEM cells: prevented
[2]; idelalisib 1.0 μM, 30 min pretreatment, rabbit vitreous 1:2 for 30 min
  inhibition of vitreous-stimulated phosphorylation of Akt at serine 473: completely inhibited
[2]; idelalisib 10.0 μM (selective dose for PI3Kδ), PDGF-B 10 ng/ml
  inhibition of PDGF-stimulated activation of Akt: neither inhibited
[3]
  effect on angiogenesis in oxygen-induced retinopathy: abrogated
[4]
  effect on VEGF-stimulated cell proliferation of HRECs: completely blocked
[5]
  effect on vitreous-induced proliferation of RPEM cells: prevented
